The source of these data is PubChem BioAssay AID272 (DTP/NCI, 2004).

Each structure is given as a SMILES string. Several values for one entry are separate records, joined by “and”; a condition that tells them apart may be missing. Equal values may be shown once. Records with an inconclusive call do not appear.

The subject of the test is Lewis lung carcinoma i.m., BDF1 mice, T/C %. The test can be described thus: NCI In Vivo Anticancer Drug Screen. Data for tumor model Lewis Lung Carcinoma (intramuscular) in B6D2F1 (BDF1) mice. The method in brief: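 Compound given to mice with transplantable tumours; survival or tumour size compared against the vehicle control group, reported as T divided by C.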
Setting [1] is: endpoint: mean tumor weight (est.), dose: 200.0 mg/kg/injection, schedule: Q01DX011 (ip), vehicle: saline, higher = larger tumour.
Where [2] appears, read: endpoint: mean tumor weight (est.), dose: 400.0 mg/kg/injection, schedule: Q01DX011 (ip), vehicle: saline, higher = larger tumour.
[3] abbreviates: endpoint: median survival time, dose: 200.0 mg/kg/injection, schedule: Q01DX011 (ip), vehicle: saline, higher = longer survival.
Setting [4] is: endpoint: median survival time, dose: 400.0 mg/kg/injection, schedule: Q01DX011 (ip), vehicle: saline, higher = longer survival.

For `CC(SC(C)C(=O)NN)C(=O)NN` (centres undefined), the T/C by setting is: (endpoint: mean tumor weight (est.), dose: 138.75 mg/kg/injection, schedule: Q01DX011 (ip), vehicle: saline, higher = larger tumour) 80 % of control; (endpoint: mean tumor weight (est.), dose: 277.5 mg/kg/injection, schedule: Q01DX011 (ip), vehicle: saline, higher = larger tumour) 87 % of control; (endpoint: mean tumor weight (est.), dose: 555.0 mg/kg/injection, schedule: Q01DX011 (ip), vehicle: saline, higher = larger tumour) 76 % of control; (endpoint: median survival time, dose: 138.75 mg/kg/injection, schedule: Q01DX011 (ip), vehicle: saline, higher = longer survival) 90 % of control; (endpoint: median survival time, dose: 277.5 mg/kg/injection, schedule: Q01DX011 (ip), vehicle: saline, higher = longer survival) 96 % of control; (endpoint: median survival time, dose: 555.0 mg/kg/injection, schedule: Q01DX011 (ip), vehicle: saline, higher = longer survival) 90 % of control.

`CC(C)[C@](O)(C(=O)OCC1=CC[N+]2([O-])CC[C@@H](O)[C@@H]12)[C@H](C)O` (some centres undefined): the T/C reads like this: under setting [1], 76 % of control; under setting [2], 78 % of control; (endpoint: mean tumor weight, dose: 50.0 mg/kg/injection, schedule: Q01DX011 (ip), vehicle: water, higher = larger tumour) 78 % of control; (endpoint: mean tumor weight, dose: 100.0 mg/kg/injection, schedule: Q01DX011 (ip), vehicle: water, higher = larger tumour) 44 % of control; (endpoint: mean tumor weight, dose: 200.0 mg/kg/injection, schedule: Q01DX011 (ip), vehicle: water, higher = larger tumour) 56 % of control; (endpoint: mean tumor weight, dose: 400.0 mg/kg/injection, schedule: Q01DX011 (ip), vehicle: water, higher = larger tumour) 47 % of control. Also, the T/C was 101 % of control under setting [3] and 101 % of control under setting [4].

For `CCN(CC)CCN1C(=O)c2cccc3cccc(c23)C1=O`, the T/C by setting is: (endpoint: mean tumor weight (est.), dose: 27.5 mg/kg/injection, schedule: Q01DX011 (ip), vehicle: saline, higher = larger tumour) 76 % of control; (endpoint: mean tumor weight (est.), dose: 55.0 mg/kg/injection, schedule: Q01DX011 (ip), vehicle: saline, higher = larger tumour) 55 % of control; (endpoint: mean tumor weight (est.), dose: 110.0 mg/kg/injection, schedule: Q01DX011 (ip), vehicle: saline, higher = larger tumour) 64 % of control.

With `C1OC1CN1CCN(CC2CO2)CC1` (centres undefined), the T/C is 83 % of control (endpoint: mean tumor weight (est.), dose: 1.0 mg/kg/injection, schedule: Q01DX011 (ip), vehicle: saline, higher = larger tumour); 65 % of control (endpoint: mean tumor weight (est.), dose: 2.0 mg/kg/injection, schedule: Q01DX011 (ip), vehicle: saline, higher = larger tumour); 74 % of control (endpoint: mean tumor weight (est.), dose: 4.0 mg/kg/injection, schedule: Q01DX011 (ip), vehicle: saline, higher = larger tumour); 71 % of control (endpoint: mean tumor weight (est.), dose: 8.0 mg/kg/injection, schedule: Q01DX011 (ip), vehicle: saline, higher = larger tumour); 63 % of control (endpoint: mean tumor weight (est.), dose: 16.0 mg/kg/injection, schedule: Q01DX011 (ip), vehicle: saline, higher = larger tumour); 96 % of control (endpoint: median survival time, dose: 2.0 mg/kg/injection, schedule: Q01DX011 (ip), vehicle: saline, higher = longer survival). Further, the T/C runs as follows: (endpoint: median survival time, dose: 4.0 mg/kg/injection, schedule: Q01DX011 (ip), vehicle: saline, higher = longer survival) 105 % of control; (endpoint: median survival time, dose: 16.0 mg/kg/injection, schedule: Q01DX011 (ip), vehicle: saline, higher = longer survival) 106 % of control.

On to `CCOC(=O)N1c2ccccc2C=CC1C#N` (centres undefined), for which the T/C is, setting by setting: (endpoint: mean tumor weight (est.), dose: 50.0 mg/kg/injection, schedule: Q01DX011 (ip), vehicle: saline with Tween-80, higher = larger tumour) 67 % of control; (endpoint: mean tumor weight (est.), dose: 100.0 mg/kg/injection, schedule: Q01DX011 (ip), vehicle: saline with Tween-80, higher = larger tumour) 91 % of control; (endpoint: mean tumor weight (est.), dose: 200.0 mg/kg/injection, schedule: Q01DX011 (ip), vehicle: saline with Tween-80, higher = larger tumour) 72 % of control; (endpoint: mean tumor weight (est.), dose: 400.0 mg/kg/injection, schedule: Q01DX011 (ip), vehicle: saline with Tween-80, higher = larger tumour) 59 % of control; (endpoint: median survival time, dose: 50.0 mg/kg/injection, schedule: Q01DX011 (ip), vehicle: saline with Tween-80, higher = longer survival) 94 % of control; (endpoint: median survival time, dose: 100.0 mg/kg/injection, schedule: Q01DX011 (ip), vehicle: saline with Tween-80, higher = longer survival) 90 % of control. In addition, the T/C (endpoint: median survival time, dose: 200.0 mg/kg/injection, schedule: Q01DX011 (ip), vehicle: saline with Tween-80, higher = longer survival) is 96 % of control and the T/C (endpoint: median survival time, dose: 400.0 mg/kg/injection, schedule: Q01DX011 (ip), vehicle: saline with Tween-80, higher = longer survival) is 88 % of control.

For the molecule `Nc1ncnc2c1ncn2C1OC(CO)C(O)C1O` (centres undefined), the T/C reads like this: under setting [1], 65 % of control; under setting [2], 63 % of control; (endpoint: mean tumor weight (est.), dose: 600.0 mg/kg/injection, schedule: Q01DX011 (ip), vehicle: saline, higher = larger tumour) 15 % of control; under setting [3], 119 % of control; under setting [4], 86 % of control.

Regarding `Nc1ncnc2c1ccn2C1OC(CO)C(O)C1O` (centres undefined), the T/C is 90 % of control (endpoint: median survival time, dose: 0.1 mg/kg/injection, schedule: Q01DX011 (ip), vehicle: steriod suspending solution, higher = longer survival); 101 % of control (endpoint: median survival time, dose: 0.19 mg/kg/injection, schedule: Q01DX011 (ip), vehicle: steriod suspending solution, higher = longer survival); 106 % of control (endpoint: median survival time, dose: 0.25 mg/kg/injection, schedule: Q01DX011 (ip), vehicle: carboxymethylcellulose (CMC), higher = longer survival); 92 % of control (endpoint: median survival time, dose: 0.38 mg/kg/injection, schedule: Q01DX011 (ip), vehicle: steriod suspending solution, higher = longer survival); 98 % of control (endpoint: median survival time, dose: 0.5 mg/kg/injection, schedule: Q01DX009 (ip), vehicle: Klucel (hydroxypropylcellulose) (HPC), higher = longer survival); 100 % of control (endpoint: median survival time, dose: 0.5 mg/kg/injection, schedule: Q01DX011 (ip), vehicle: carboxymethylcellulose (CMC), higher = longer survival). The T/C is 86 % of control (endpoint: median survival time, dose: 0.75 mg/kg/injection, schedule: Q01DX011 (ip), vehicle: steriod suspending solution, higher = longer survival); 70 % of control (endpoint: median tumor weight (est.), dose: 0.1 mg/kg/injection, schedule: Q01DX011 (ip), vehicle: steriod suspending solution, higher = larger tumour); 96 % of control (endpoint: median tumor weight (est.), dose: 0.19 mg/kg/injection, schedule: Q01DX011 (ip), vehicle: steriod suspending solution, higher = larger tumour); 70 % of control (endpoint: median tumor weight (est.), dose: 0.38 mg/kg/injection, schedule: Q01DX011 (ip), vehicle: steriod suspending solution, higher = larger tumour); 84 % of control (endpoint: median tumor weight (est.), dose: 0.75 mg/kg/injection, schedule: Q01DX011 (ip), vehicle: steriod suspending solution, higher = larger tumour).

`Cc1nc(N)c(C)c(C(=O)O)n1`: the T/C reads like this: (endpoint: median survival time, dose: 4.0 mg/kg/injection, schedule: Q01DX009 (ip), vehicle: water, higher = longer survival) 110 % of control; (endpoint: median survival time, dose: 8.0 mg/kg/injection, schedule: Q01DX009 (ip), vehicle: water, higher = longer survival) 105 % of control; (endpoint: median survival time, dose: 64.0 mg/kg/injection, schedule: Q01DX009 (ip), vehicle: water, higher = longer survival) 92 % of control.

For the molecule `Clc1ncnc2nc[nH]c12`, the T/C was 76 % of control (endpoint: mean tumor weight (est.), dose: 6.25 mg/kg/injection, schedule: Q01DX011 (ip), vehicle: other, higher = larger tumour); 91 % of control (endpoint: mean tumor weight (est.), dose: 12.5 mg/kg/injection, schedule: Q01DX011 (ip), vehicle: other, higher = larger tumour); 105 % of control (endpoint: mean tumor weight (est.), dose: 25.0 mg/kg/injection, schedule: Q01DX011 (ip), vehicle: other, higher = larger tumour); 89 % of control (endpoint: mean tumor weight (est.), dose: 50.0 mg/kg/injection, schedule: Q01DX011 (ip), vehicle: other, higher = larger tumour); 74 % of control (endpoint: mean tumor weight (est.), dose: 100.0 mg/kg/injection, schedule: Q01DX011 (ip), vehicle: other, higher = larger tumour); 119 % of control (endpoint: mean tumor weight, dose: 3.13 mg/kg/injection, schedule: Q01DX011 (ip), vehicle: other, higher = larger tumour). Moreover, the T/C (endpoint: mean tumor weight, dose: 6.25 mg/kg/injection, schedule: Q01DX011 (ip), vehicle: other, higher = larger tumour) is 103 % of control; the T/C (endpoint: mean tumor weight, dose: 12.5 mg/kg/injection, schedule: Q01DX011 (ip), vehicle: other, higher = larger tumour) is 98 % of control; the T/C (endpoint: mean tumor weight, dose: 25.0 mg/kg/injection, schedule: Q01DX011 (ip), vehicle: other, higher = larger tumour) was 50 % of control; the T/C (endpoint: mean tumor weight, dose: 50.0 mg/kg/injection, schedule: Q01DX011 (ip), vehicle: other, higher = larger tumour) was 73 % of control; the T/C (endpoint: median survival time, dose: 3.13 mg/kg/injection, schedule: Q01DX011 (ip), vehicle: other, higher = longer survival) is 96 % of control and 110 % of control; the T/C (endpoint: median survival time, dose: 25.0 mg/kg/injection, schedule: Q01DX011 (ip), vehicle: other, higher = longer survival) was 96 % of control. Further, the T/C by setting is: (endpoint: median survival time, dose: 50.0 mg/kg/injection, schedule: Q01DX011 (ip), vehicle: other, higher = longer survival) 100 % of control and 116 % of control; (endpoint: median survival time, dose: 100.0 mg/kg/injection, schedule: Q01DX011 (ip), vehicle: other, higher = longer survival) 88 % of control.

Consider `CC(=O)O[C@H]1[C@H]2O[C@]23[C@@H]2CC[C@@H]4C[C@@H](O)CC[C@]4(C)[C@H]2CC[C@]3(C)[C@H]1c1ccc(=O)oc1`, for which the T/C was 94 % of control (endpoint: mean tumor weight (est.), dose: 7.5 mg/kg/injection, schedule: Q01DX011 (ip), vehicle: other, higher = larger tumour) and 90 % of control (endpoint: median survival time, dose: 7.5 mg/kg/injection, schedule: Q01DX011 (ip), vehicle: other, higher = longer survival).

On to `COC(=O)[CH](C[N+](=O)[O-])[Hg][Cl]` (centres undefined), for which the T/C was 79 % of control (endpoint: mean tumor weight (est.), dose: 3.12 mg/kg/injection, schedule: Q01DX011 (ip), vehicle: saline, higher = larger tumour); 69 % of control (endpoint: mean tumor weight (est.), dose: 6.25 mg/kg/injection, schedule: Q01DX011 (ip), vehicle: saline, higher = larger tumour); 71 % of control (endpoint: mean tumor weight (est.), dose: 12.5 mg/kg/injection, schedule: Q01DX011 (ip), vehicle: saline, higher = larger tumour); 107 % of control (endpoint: median survival time, dose: 3.12 mg/kg/injection, schedule: Q01DX011 (ip), vehicle: saline, higher = longer survival); 115 % of control (endpoint: median survival time, dose: 6.25 mg/kg/injection, schedule: Q01DX011 (ip), vehicle: saline, higher = longer survival); 88 % of control (endpoint: median survival time, dose: 12.5 mg/kg/injection, schedule: Q01DX011 (ip), vehicle: saline, higher = longer survival).
